Test results: the METLIN SMRT retention time set (Domingo-Almenara et al. 2019)

Experiment: gradient 5% acetonitrile 3 min, to 50% in 2 min, to 85% in 15 min, held 3 min, 100 µL/min
Settings: column: Zorbax Extend-C18 2.1 x 50 mm; eluents: water / acetonitrile, 0.1% formic acid
Summary of the method: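 Values are retention times taken from adduct peaks that software picked and an analyst inspected. The pure standards were run as mixtures of ~100 molecules on HPLC linked to a quadrupole time-of-flight mass spectrometer, in positive and negative ionization mode. A Zorbax Extend-C18 column (2.1 × 50 mm, 1.8 μm) was used at 100 μL/min with water and acetonitrile, each including 0.1% formic acid.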

CC(C)OCCCNC(=O)C1CCCN(c2ccc(=O)n(-c3cccc(Cl)c3)n2)C1 (configuration not stated)
RP-LC retention time: 789 s

CCCC(=O)N1CCc2c([nH]c3ccccc23)C1c1cccc(OCC)c1 (configuration not stated)
RP-LC retention time: 1150 s

CCOc1ccc(C(=O)NC2(c3nc(C(C)C)no3)CCCCC2)cc1OCC
RP-LC retention time: 1060 s

O=C(Nc1c(-c2ccc(F)cc2)nc2ccccn12)c1ccc(Cl)cc1Cl
RP-LC retention time: 739 s

CC(C)CNC(=O)C1CCCN(c2nccn3nc(-c4ccccc4Cl)cc23)C1 (configuration not stated)
RP-LC retention time: 872 s

COCCCNC(=O)c1cc(-c2ccc(F)cc2)c[nH]1
RP-LC retention time: 726 s

Cc1nc(-c2ccc(S(=O)(=O)N3CCc4ccccc4C3)cc2)co1
RP-LC retention time: 1020 s

Fc1ccc(-c2nnc(-c3nc(NC4CCCCC4)c4ccccc4n3)o2)cc1
RP-LC retention time: 1110 s

CC(C)CNC(=O)c1ccc2c(c1)N(C)C(=O)CS2
RP-LC retention time: 708 s

CCN1CCN(C(=O)Cc2c(C)nc3nc(-c4ccc(C(C)(C)C)cc4)nn3c2C)CC1
RP-LC retention time: 673 s

CCOc1ccc(CC(=O)NC2CCN(c3cc(-c4cccs4)[nH]n3)C2)cc1 (configuration not stated)
RP-LC retention time: 733 s

O=C(Nc1nnc(SCc2nnc(-c3ccccc3)o2)s1)C1CCCCC1
RP-LC retention time: 934 s

Cc1noc(-c2ccnc(-n3cnc(C(=O)NC(C)c4ccccc4)c3)c2)n1 (configuration not stated)
RP-LC retention time: 867 s

CC(C)(C)NC(=O)NC1CCN(C(=O)C2CCC2)C1 (configuration not stated)
RP-LC retention time: 636 s

Cn1nnc2c(N3CCN(C(=O)C(C)(C)Oc4ccc(Cl)cc4)CC3)ncnc21
RP-LC retention time: 850 s

Cc1nc(-c2csc(S(=O)(=O)N3CCCC(C(=O)Nc4ccc(C)c(F)c4)C3)c2)no1 (configuration not stated)
RP-LC retention time: 1030 s

CC1(C(=O)NCc2ccccc2)CN(S(=O)(=O)c2ccccc2)CC(=O)N1C1CCCC1 (configuration not stated)
RP-LC retention time: 787 s

O=C(NCc1ccccc1Cl)C(=O)NCC1CCN(C(=O)Oc2ccccc2)CC1
RP-LC retention time: 893 s

O=C(CN1C[C@H]2C[C@H](C1)[C@H]1CCCC(=O)N1C2)NCc1cccs1
RP-LC retention time: 578 s

Cc1nc(CC(=O)Nc2nc(-c3ccc(F)cc3)cs2)cs1
RP-LC retention time: 863 s

CC(C)n1c(CCNC(=O)c2ccccc2)nc2cccnc21
RP-LC retention time: 640 s

O=c1n(Cc2ccccc2)nc2ccc(S(=O)(=O)N3CCc4ccccc4C3)cn12
RP-LC retention time: 644 s

COC(=O)c1ccc2c(=O)n(-c3cccc(Cl)c3)c(N3CCN(c4ccccn4)CC3)nc2c1
RP-LC retention time: 744 s

COC(=O)c1ccc2c(=O)n(-c3ccc(C)c(F)c3)c(N3CCOCC3)nc2c1
RP-LC retention time: 975 s

COc1ccccc1NCC(O)Cn1ccc2ccccc21 (configuration not stated)
RP-LC retention time: 871 s

CCn1ccc2sc(C)c(C(=O)NCc3ccc(OC)cc3)c2c1=O
RP-LC retention time: 786 s

CC(C)c1ccc(N2C(=O)C3N=NN(Cc4nc(-c5ccc(Br)cc5)no4)C3C2=O)cc1 (configuration not stated)
RP-LC retention time: 1220 s

COC(=O)CCNC(=O)c1cc2c(=O)n(CC(C)C)c3ccccc3n2n1
RP-LC retention time: 828 s

COc1ccccc1C(=O)N1CCC2(CC1)NC(=O)c1cc(C)ccc1N2C
RP-LC retention time: 732 s

CCN1CCCn2cc(S(=O)(=O)Nc3ccc(F)c(Cl)c3)cc2C1=O
RP-LC retention time: 738 s

CCC(C)N1CC(=O)N(c2ccc(OC)c(Cl)c2)[C@@H]2CS(=O)(=O)C[C@@H]21 (some centres not stated)
RP-LC retention time: 786 s

CC1=CC(C)(C(Cl)(Cl)Cl)C(C)=C/C1=N/O (configuration not stated)
RP-LC retention time: 1100 s

CCn1c(CCc2ccccc2NS(=O)(=O)c2c(C)n[nH]c2C)nc2ccccc21
RP-LC retention time: 630 s

Cc1csc(NC(=O)CSc2nnc(NC(=O)c3cc(C)on3)s2)n1
RP-LC retention time: 692 s

O=C(c1cccnc1)N1CCN(c2ccccc2Cl)CC1
RP-LC retention time: 826 s

Cc1cc(F)ccc1N1C(=O)CN(S(C)(=O)=O)CC1(C)C(=O)NCc1ccc(F)cc1 (configuration not stated)
RP-LC retention time: 814 s

COCCNC(=O)C1Cc2cc(C(F)(F)F)ccc2N2CCN(C(=O)c3ccco3)CC12 (configuration not stated)
RP-LC retention time: 767 s
